Data reported in US20230135093A1, “TRIAZOLYL DERIVATIVES AS GABA A ALPHA5 PAM” (Hoffmann-La Roche Inc., priority 2020, published 2023).
pKi: −log10 of the molar value.

Key:
h-GABA-A α5β3γ2 [1] = target: T1, h-GABA-A α5β3γ2 (Homo sapiens, UniProt P18507+P31644); assay: [3H]flumazenil competition binding assay on membranes of HEK293 cells expressing GABAA receptors; conditions: Table 1; displacement of [3H]-Flumazenil (0.5 nM), HEK293 cells expressing human receptors, means of two determinations
T1 construct: expressed in transfected cells; host or cells: Xenopus laevis oocytes, micro-injected with subunit RNA
Protocol: The affinity of compounds at GABAA receptor subtypes was measured by competition for [3H]flumazenil (85 Ci/mmol; Roche) binding to HEK293 cells expressing rat (stably transfected) or human (transiently transfected) receptors of composition α1β3γ2, α2β3γ2, α3β3γ2 and α5β3γ2.
Cell pellets were suspended in Krebs-tris buffer (4.8 mM KCl, 1.2 mM CaCl2, 1.2 mM MgCl2, 120 mM NaCl, 15 mM Tris; pH 7.5; binding assay buffer), homogenized by polytron for ca. 20 sec on ice and centrifuged for 60 min at 4° C. (50000 g; Sorvall, rotor: SM24=20000 rpm). The cell pellets were resuspended in Krebs-tris buffer and homogenized by polytron for ca. 15 sec on ice. Protein was measured (Bradford method, Bio-Rad) and aliquots of 1 mL were prepared and stored at −80° C.
Radioligand binding assays were carried out in a volume of […] (96-well plates) which contained […] of cell membranes, [^3H]-Flumazenil at a concentration of 1 nM for α1, α2, α3 subunits and 0.5 nM for α5 subunits and the test compound in the range of […]. Nonspecific binding was defined by 10^−5 M diazepam and typically represented less than 5% of the total binding. Assays were incubated to equilibrium for 1 hour at 4° C. and harvested onto GF/C uni-filters (Packard) by filtration using a Packard harvester and washing with ice-cold wash buffer (50 mM Tris; pH 7.5). After drying, filter-retained radioactivity was detected by liquid scintillation counting. Ki values were calculated using Excel-Fit (Microsoft) and are the means of two determinations.
In a preferred embodiment the compounds of the invention are binding selective for the α5 subunit relative to the α1, α2 and α3 subunit. Representative test results, obtained by the above described assay measuring binding affinity to HEK293 cells expressing human (h) receptors, are shown in the Table below.

h-GABA-A α5β3γ2 [2] = target: T1, h-GABA-A α5β3γ2; assay: Two-electrode voltage clamp electrophysiology in Xenopus oocytes expressing GABAA receptors (modulation of GABA EC20 current); format: cell-based; conditions: for Efficacy (GABA) % / Fold increase h-GABA-A α5β3γ2 oocyte: Table 1; for Efficacy (GABA) %: % modulation of GABA EC20 = 100*(Fold increase-1); for Fold increase h-GABA-A α5β3γ2 oocyte: Xenopus oocytes, GABA EC20, test compound at approximatively 30 fold its Ki; for Fold increase: positive controls
Protocol: Xenopus laevis oocytes at maturation stages V-VI were used for the expression of cloned mRNA encoding GABAA receptor subunits. Oocytes ready for RNA micro-injection were bought from Ecocyte, Castrop-Rauxel, Germany and stored in modified Barth's medium (composition in mM: NaCl 88, KCl 1, NaHCO3 2.4, HEPES 10, MgSO4 0.82, CaNO3 0.33, CaCl2 0.33, pH=7.5) at 20° C. until the experiment.
Oocytes were plated in 96-well plates to be used in an automated instrument (Robo-ocyte, MultiChannelSystems, Reutlingen, Germany) for microinjection and electrophysiological recordings. Approximately 50 nl of an aqueous solution containing the RNA transcripts for the subunits of the desired GABAA receptor was injected into each oocyte. RNA concentrations ranged between 0.3 and 16 ng/μl/subunit and were adjusted in pilot experiments to obtain GABA responses of a suitable size and a maximal effect of the reference modulator, Beta-CCM (3-CCM), a betacarboline negative allosteric modulator (NAM) at the GABAA receptor benzodiazepine (BZD) binding site or Midazolam, a benzodiazepine positive allosteric modulator (PAM) at the GABAA receptor benzodiazepine (BZD) binding site. The concentration of the γ2 subunit encoding RNA usually was 5- to 10-fold higher than the RNAs encoding the other subunits. Oocytes were kept in modified Barth's medium (composition in mM: NaCl 88, KCl 1, NaHCO3 4, HEPES 10, MgSO4 0.82, CaNO3 0.33, CaCl2 0.33, pH=7.5) at 20° C. until the experiment.
Electrophysiological experiments were performed on days 3 to 5 after the micro-injection of mRNA. During the experiment the oocytes were constantly superfused by a solution containing (in mM) NaCl 90, KCl 1, HEPES 5, MgCl2 1, CaCl2 1 (pH 7.4). Oocytes were impaled by two glass microelectrodes (resistance: 0.4 MQ) which were filled with a solution containing KCl 1M+K-acetate 1.5 M and voltage-clamped to −80 mV. The recordings were performed at room temperature using the Roboocyte two-electrode voltage clamp system (Multichannelsystem). After an initial equilibration period of 1.5 min GABA was added for 1.5 min at a concentration evoking approximately 20% of a maximal current response (EC20). After another rest interval of 2.5 min GABA was again added evoking a response of similar amplitude and shape. 0.5 min after the onset of this second GABA application the test compound, at a concentration corresponding to approximatively 30 fold its Ki, was added while GABA was still present. Current traces were recorded at a digitization rate of 10 Hz during and shortly before and after the GABA application.
Each compound and concentration was tested on at least 3 oocytes. Different oocytes were used for different compound concentrations. β-CCM, a negative allosteric modulator, or Midazolam, a positive allosteric modulators, were tested on a few (3-6) oocytes on each 96-well plate for a positive control at a maximally effective. β-CCM inhibited the GABA-evoked current by approximatively 50% (Fold increase 0.5), while Midazolam potentiated the GABA-induced current by approximatively 150% (Fold increase 2.5).
For the analysis, the digitized current traces of the first and second GABA response were superimposed and, if necessary, rescaled to equal maximal amplitudes. The ratio between the two responses during the time interval of test compound application was calculated point by point. The extremum of the resulting “ratio trace” was taken as the efficacy (“Fold increase”) of the compound expressed as “% modulation of GABA EC20” (100*(Fold increase-1)).

[3] = positive control, maximally effective concentration, 3-6 oocytes per 96-well plate
[4] = maximally effective concentration

| Structure (SMILES) | pKi (h-GABA-A α5β3γ2 [1]) | Efficacy (GABA) % (h-GABA-A α5β3γ2 [2]) [%] | Fold increase h-GABA-A α5β3γ2 oocyte (h-GABA-A α5β3γ2 [2]) | potentiated the GABA-induced current (h-GABA-A α5β3γ2 [2]; [3]) [%] | Fold increase (h-GABA-A α5β3γ2 [2]; [4]) | inhibited the GABA-evoked current (h-GABA-A α5β3γ2 [2]; [3]) [%] |
| --- | --- | --- | --- | --- | --- | --- |
| CCn1nnc(-c2ccc(Cl)cc2F)c1Cn1ncc(N2CC3(CC[C@@H](C)CO3)C2)cc1=O [Example 122, (R)-2-((4-(4-chloro-2-fluorophenyl)-1-ethyl-1H-1,2,3-triazol-5-yl)methyl)-5-(7-methyl-5-oxa-2-azaspiro[3.5]nonan-2-yl)pyridazin-3(2H)-one] | 7.26 | 141 | 2.41 |  |  |  |
| CCc1nccn1C1CCN(c2cnn(Cc3c(C)nnn3-c3ccc(Cl)cc3F)c(=O)c2)CC1 [Example 47, 2-[[3-(4-chloro-2-fluoro-phenyl)-5-methyl-triazol-4-yl]methyl]-5-[4-(2-ethylimidazol-1-yl)-1-piperidyl]pyridazin-3-one] | 7.88 | 130 | 2.3 |  |  |  |
| Cc1ccc(-c2nnn(C)c2Cn2ncc(N3CCC[C@H]3C)cc2=O)cn1 [Example 18, 2-[[3-methyl-5-(6-methyl-3-pyridyl)triazol-4-yl]methyl]-5-[(2R)-2-methylpyrrolidin-1-yl]pyridazin-3-one] | 9.10 | 79 | 1.79 |  |  |  |
| Cn1nnc(-c2ccc(C(F)(F)F)cc2F)c1Cn1ncc(N2CC3(CCCO3)C2)cc1=O [Example 75, 2-[[5-[2-fluoro-4-(trifluoromethyl)phenyl]-3-methyl-triazol-4-yl]methyl]-5-(5-oxa-2-azaspiro[3.4]octan-2-yl)pyridazin-3-one] | 7.64 | 73 | 1.73 |  |  |  |
| Cc1ccc(-c2nnn(C)c2Cn2ncc(N3CCC(C)(C)C3)cc2=O)cn1 [Example 10, 5-(3,3-dimethylpyrrolidin-1-yl)-2-[[3-methyl-5-(6-methyl-3-pyridyl)triazol-4-yl]methyl]pyridazin-3-one] | 8.36 | 201 | 3.01 |  |  |  |
| Cc1nnn(-c2ccc(Cl)cc2)c1Cn1ncc(N(C)C)cc1=O [Example 13, 2-[[3-(4-chlorophenyl)-5-methyl-triazol-4-yl]methyl]-5-(dimethylamino)pyridazin-3-one] | 7.50 | 31 | 1.31 |  |  |  |
| Cc1nnn(-c2ccc(Cl)cc2F)c1Cn1ncc(-c2cnn(C3CC3)c2)cc1=O [Example 65, 2-((3-(4-chloro-2-fluoro-phenyl)-5-methyl-triazol-4-yl)methyl)-5-(1-cyclopropylpyrazol-4-yl)pyridazin-3-one] | 7.32 | 42 | 1.42 |  |  |  |
| Cc1nnn(-c2ccc(Cl)cc2F)c1Cn1ncc(N2C[C@H](C)O[C@@H](C)C2)cc1=O (racemic) [Example 37, 2-[[3-(4-chloro-2-fluoro-phenyl)-5-methyl-triazol-4-yl]methyl]-5-[rac-(2S,6S)-2,6-dimethylmorpholin-4-yl]pyridazin-3-one] | 8.44 | 135 | 2.35 |  |  |  |
| Cc1ccnn1C1CN(c2cnn(Cc3c(-c4ccc(Cl)cc4F)nnn3C)c(=O)c2)C1 [Example 113, 2-[[5-(4-chloro-2-fluoro-phenyl)-3-methyl-triazol-4-yl]methyl]-5-[3-(5-methylpyrazol-1-yl)azetidin-1-yl]pyridazin-3-one] | 7.31 | 98 | 1.98 |  |  |  |
| CN(C)c1cnn(Cc2c(-c3ccc(Cl)cc3)nnn2C)c(=O)c1 [Example 31, 2-[[5-(4-chlorophenyl)-3-methyl-triazol-4-yl]methyl]-5-(dimethylamino)pyridazin-3-one] | 7.76 | 35 | 1.35 |  |  |  |
| Cc1ccc(-c2nnn(C)c2Cn2ncc(N3CCOCC3)cc2=O)cn1 [Example 9, 2-[[3-methyl-5-(6-methyl-3-pyridyl)triazol-4-yl]methyl]-5-morpholino-pyridazin-3-one] | 7.77 | 135 | 2.35 |  |  |  |
| CO[C@@H]1COC2(C1)CN(c1cnn(Cc3c(-c4ccc(Cl)cc4F)nnn3C)c(=O)c1)C2 [Example 32, (S)-2-((4-(4-chloro-2-fluorophenyl)-1-methyl-1H-1,2,3-triazol-5-yl)methyl)-5-(7-methoxy-5-oxa-2-azaspiro[3.4]octan-2-yl)pyridazin-3(2H)-one] | 7.33 | 98 | 1.98 |  |  |  |
| CC(C)OC1CN(c2cnn(Cc3c(-c4ccc(Cl)cc4F)nnn3C)c(=O)c2)C1 [Example 48, 2-((5-(4-chloro-2-fluoro-phenyl)-3-methyl-triazol-4-yl)methyl)-5-(3-isopropoxyazetidin-1-yl)pyridazin-3-one] | 8.07 | 52 | 1.52 |  |  |  |
| COc1cc(-c2cnn(Cc3c(-c4ccc(C)nc4)nnn3C)c(=O)c2)ccn1 [Example 81, 5-(2-methoxy-4-pyridyl)-2-((3-methyl-5-(6-methyl-3-pyridyl)triazol-4-yl)methyl)pyridazin-3-one] | 7.70 | 110 | 2.1 |  |  |  |
| Cn1nnc(-c2ccc(Cl)cc2F)c1Cn1ncc(N2CC(Oc3ccccn3)C2)cc1=O [Example 43, 2-((5-(4-chloro-2-fluoro-phenyl)-3-methyl-triazol-4-yl)methyl)-5-(3-(2-pyridyl-oxy)azetidin-1-yl)pyridazin-3-one] | 8.10 | 97 | 1.97 |  |  |  |
| CCOC1CN(c2cnn(Cc3c(-c4ccc(C(F)(F)F)cc4F)nnn3C)c(=O)c2)C1 [Example 72, 5-(3-ethoxyazetidin-1-yl)-2-[[5-[2-fluoro-4-(trifluoromethyl)phenyl]-3-methyl-triazol-4-yl]methyl]pyridazin-3-one] | 7.71 | 70 | 1.7 |  |  |  |
| Cc1ncc2n1-c1ccc(Cl)cc1C(c1ccccc1F)=NC2 [Midazolam, reference compound] |  |  |  | ~150 | ~2.5 |  |
| COC(=O)c1cc2c(cn1)[nH]c1ccccc12 [β-CCM, reference compound] |  |  |  |  | ~0.5 | ~50 |
